The record followed here is ChEMBL document CHEMBL1127966, “Acyclic NK1 antagonists: Replacements for the benzhydryl group” (Bioorg Med Chem Lett, 1994).

The target of one experiment is Substance-P receptor (Homo sapiens, UniProt P25103). The experiment can be described thus: Binding affinity of compound was determined from inhibition of [125I]- substance P binding to the hNK1 receptor in CHO cells. The class given is cell-based.
Experiment [1] addresses T1, Neuromedin-K receptor (Homo sapiens) (UniProt P29371).
T1 sequence (whole entry): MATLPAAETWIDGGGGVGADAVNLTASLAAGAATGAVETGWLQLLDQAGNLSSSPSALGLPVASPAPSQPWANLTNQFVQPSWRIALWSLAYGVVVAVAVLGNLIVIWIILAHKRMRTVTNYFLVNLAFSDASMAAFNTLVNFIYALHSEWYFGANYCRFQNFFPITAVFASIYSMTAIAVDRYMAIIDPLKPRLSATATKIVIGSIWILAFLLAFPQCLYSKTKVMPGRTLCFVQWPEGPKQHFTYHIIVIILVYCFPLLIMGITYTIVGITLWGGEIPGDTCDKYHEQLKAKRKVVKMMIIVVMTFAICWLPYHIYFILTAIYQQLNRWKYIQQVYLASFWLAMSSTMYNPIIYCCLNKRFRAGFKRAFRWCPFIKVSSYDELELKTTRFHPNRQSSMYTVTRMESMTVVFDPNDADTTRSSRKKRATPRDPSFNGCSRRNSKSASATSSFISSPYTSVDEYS
Kind of experiment: Binding affinity to Tachykinin receptor 3.

The target in experiment [2] is T2, Substance-K receptor (Homo sapiens) (UniProt P21452).
T2 sequence (whole entry): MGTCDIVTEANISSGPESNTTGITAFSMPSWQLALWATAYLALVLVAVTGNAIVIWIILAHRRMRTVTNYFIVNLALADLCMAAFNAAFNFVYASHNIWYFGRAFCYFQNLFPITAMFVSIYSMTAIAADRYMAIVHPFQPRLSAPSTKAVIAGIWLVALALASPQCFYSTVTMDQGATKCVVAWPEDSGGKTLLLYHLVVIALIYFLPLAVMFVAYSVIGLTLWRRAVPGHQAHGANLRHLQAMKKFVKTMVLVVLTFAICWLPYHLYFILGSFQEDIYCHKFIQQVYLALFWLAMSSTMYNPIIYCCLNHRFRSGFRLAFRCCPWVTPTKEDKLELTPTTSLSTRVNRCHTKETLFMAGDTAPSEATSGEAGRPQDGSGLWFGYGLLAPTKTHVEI
The experiment can be described thus: Binding affinity to Tachykinin receptor 2.

As usually defined, the IC50 is the concentration at which inhibition is half-maximal. Lower therefore signals greater potency.

Chain of Substance-P receptor (P25103 whole entry): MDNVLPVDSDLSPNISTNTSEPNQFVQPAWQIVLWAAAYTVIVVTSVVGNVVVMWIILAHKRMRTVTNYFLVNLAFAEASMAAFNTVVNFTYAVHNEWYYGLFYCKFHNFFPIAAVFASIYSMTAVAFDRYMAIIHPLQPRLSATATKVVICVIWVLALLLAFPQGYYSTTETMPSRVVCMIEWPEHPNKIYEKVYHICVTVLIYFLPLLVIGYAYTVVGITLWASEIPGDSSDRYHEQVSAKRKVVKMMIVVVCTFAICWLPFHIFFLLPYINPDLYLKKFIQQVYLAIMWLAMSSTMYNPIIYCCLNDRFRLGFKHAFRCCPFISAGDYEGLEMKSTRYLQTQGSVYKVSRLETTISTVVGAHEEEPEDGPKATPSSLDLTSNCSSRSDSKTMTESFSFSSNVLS

With `Cc1cc(C)cc(COCC(N)C(c2ccccc2)c2ccccc2)c1` (centres undefined), at Substance-P receptor, the 50% inhibitory concentration (IC50) was determined as 9.3 nM. In other words, the single-digit nanomolar range.
Still for that read-out and setting: the result for `Cc1cc(C)cc(COCC(N)Cc2cccc3ccccc23)c1` (centres undefined) reads 1160 nM.
On the same count and under the same terms, the result for `Cc1cc(C)cc(COCC(N)C2c3ccccc3C=Cc3ccccc32)c1` (centres undefined) reads 80 nM; that for `Cc1cc(C)cc(COCC(N)Cc2ccccc2)c1` (centres undefined), 483 nM.
The same measure, in the same setting: the result for `Cc1cc(C)cc(COC[C@H](N)c2ccccc2)c1` reads 2500 nM; that for `Cc1cc(C)cc(COCC(N)C2c3ccccc3CCc3ccccc32)c1` (centres undefined), 93 nM.
Consider `Cc1cc(C)cc(COC[C@@H](N)c2ccccc2)c1`, for which the Affinity in experiment [1] and in experiment [2] was over 10 µM in each case. In addition, on Substance-P receptor, the IC50 is 55 nM.
